Laboratory results as given in ChEMBL document CHEMBL5728119, “1,2-dithiolane compounds useful in neuroprotection, autoimmune and cancer diseases and conditions” (2020).

What was measured:
[1] = target: T1, Phosphatidylinositol 4,5-bisphosphate 3-kinase catalytic subunit delta isoform (Homo sapiens, UniProt O00329); experiment: (§1) Radioisotope Filter Binding Assay: IC50 Table 13-20: The protocol calls for test compound of the invention to be incubated with kinase, substrate, cofactors, and radio-isotope-labeled ATP (33P-gamma-ATP). The reaction mixtures are then spotted onto filter papers which bind the radioisotope labeled catalytic product. Unreacted phosphate is removed via washing. The reagents used include base reaction buffer; 20 mM Hepes (pH 7.5), 10 mM MgCl2, 1 mM EGTA, 0.02% Brij35, 0.02 mg/ml BSA, 0.1 mM Na3VO4, 2 mM DTT, 1% DMSO. The reaction procedure include the following steps: (1) prepare indicated substrate in freshly prepared base reaction buffer, (2) deliver any required cofactors to the substrate solution above, (3) deliver indicated kinase into the substrate solution and gently mix, (4) deliver compounds in DMSO into the kinase reaction mixture by Acoustic technology (Echo550; nanoliter range), incubate for 20 minutes at room temperature, (5) deliver 33P-ATP (specific activity 10 μCi/μL) into the reaction mixture to initiate the reaction, (6) incubate kinase reaction for 2 hours at room temperature, (7) reactions are spotted onto P81 ion exchange paper, (8) detect kinase activity by filter-binding method.
T1 sequence (O00329 whole entry): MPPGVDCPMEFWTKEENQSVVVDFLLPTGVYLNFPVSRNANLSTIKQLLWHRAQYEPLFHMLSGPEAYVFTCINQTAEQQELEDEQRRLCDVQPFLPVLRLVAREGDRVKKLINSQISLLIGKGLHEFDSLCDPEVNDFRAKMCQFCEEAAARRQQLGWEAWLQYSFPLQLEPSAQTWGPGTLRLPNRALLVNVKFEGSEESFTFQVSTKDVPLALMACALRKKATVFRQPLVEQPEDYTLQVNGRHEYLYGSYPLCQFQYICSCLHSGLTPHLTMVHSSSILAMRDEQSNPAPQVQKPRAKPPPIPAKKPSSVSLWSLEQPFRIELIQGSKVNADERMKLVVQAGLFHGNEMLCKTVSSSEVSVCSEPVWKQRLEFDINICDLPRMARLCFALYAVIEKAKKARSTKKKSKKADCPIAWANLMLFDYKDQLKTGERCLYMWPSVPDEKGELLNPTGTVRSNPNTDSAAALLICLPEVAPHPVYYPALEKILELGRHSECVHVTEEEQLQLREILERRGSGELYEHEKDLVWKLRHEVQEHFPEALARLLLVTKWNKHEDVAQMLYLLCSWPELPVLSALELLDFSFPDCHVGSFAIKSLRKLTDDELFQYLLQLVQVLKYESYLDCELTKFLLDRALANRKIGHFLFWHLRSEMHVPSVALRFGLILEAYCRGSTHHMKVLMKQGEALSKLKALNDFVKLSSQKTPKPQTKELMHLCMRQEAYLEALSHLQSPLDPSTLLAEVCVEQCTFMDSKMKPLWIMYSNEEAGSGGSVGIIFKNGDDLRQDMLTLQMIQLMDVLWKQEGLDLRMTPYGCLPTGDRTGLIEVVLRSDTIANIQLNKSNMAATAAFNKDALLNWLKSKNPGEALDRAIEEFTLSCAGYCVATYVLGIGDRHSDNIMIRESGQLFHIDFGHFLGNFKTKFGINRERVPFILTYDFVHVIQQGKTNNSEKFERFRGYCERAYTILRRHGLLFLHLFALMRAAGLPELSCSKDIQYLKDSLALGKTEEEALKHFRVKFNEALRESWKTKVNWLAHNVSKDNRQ

[2] = target: Tyrosine-protein kinase Fyn (Homo sapiens, UniProt P06241); experiment: as §1
Tyrosine-protein kinase Fyn, sequence (P06241 whole entry): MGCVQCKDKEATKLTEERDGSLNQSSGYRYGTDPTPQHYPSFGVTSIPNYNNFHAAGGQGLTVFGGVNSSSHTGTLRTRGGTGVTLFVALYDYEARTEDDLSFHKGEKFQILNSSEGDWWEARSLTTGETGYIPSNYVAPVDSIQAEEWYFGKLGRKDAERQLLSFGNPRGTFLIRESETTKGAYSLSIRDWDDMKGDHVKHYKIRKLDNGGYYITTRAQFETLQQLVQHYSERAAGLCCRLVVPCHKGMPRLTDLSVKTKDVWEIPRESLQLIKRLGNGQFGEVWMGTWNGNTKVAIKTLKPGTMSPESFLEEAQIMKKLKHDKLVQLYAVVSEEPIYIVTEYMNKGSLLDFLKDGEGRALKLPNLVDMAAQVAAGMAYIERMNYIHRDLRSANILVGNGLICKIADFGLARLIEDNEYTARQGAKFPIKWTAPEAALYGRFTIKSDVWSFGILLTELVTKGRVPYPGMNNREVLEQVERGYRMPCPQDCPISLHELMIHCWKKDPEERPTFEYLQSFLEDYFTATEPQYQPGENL

SMILES: Nc1nc2cc(-c3nn(C[C@@H]4SSC[C@H]4OC(=O)c4ccccc4)c4ncnc(N)c34)ccc2o1 (relative stereo)
- IC50 [1]: 750 nM

SMILES: Nc1ncnc2c1c(-c1ccc(Oc3ccccc3)c(F)c1)nn2CC1SSCC1OC(=O)c1ccccc1 (configuration not stated)
- IC50 [2]: 750 nM
